Columns and labels:
[1] = target: T1, Eukaryotic elongation factor 2 kinase (Homo sapiens, UniProt O00418); assay: Inhibition of GST tagged eEf2K expressed in Escherichia coli by fluorometric method
T1 sequence (O00418 whole entry): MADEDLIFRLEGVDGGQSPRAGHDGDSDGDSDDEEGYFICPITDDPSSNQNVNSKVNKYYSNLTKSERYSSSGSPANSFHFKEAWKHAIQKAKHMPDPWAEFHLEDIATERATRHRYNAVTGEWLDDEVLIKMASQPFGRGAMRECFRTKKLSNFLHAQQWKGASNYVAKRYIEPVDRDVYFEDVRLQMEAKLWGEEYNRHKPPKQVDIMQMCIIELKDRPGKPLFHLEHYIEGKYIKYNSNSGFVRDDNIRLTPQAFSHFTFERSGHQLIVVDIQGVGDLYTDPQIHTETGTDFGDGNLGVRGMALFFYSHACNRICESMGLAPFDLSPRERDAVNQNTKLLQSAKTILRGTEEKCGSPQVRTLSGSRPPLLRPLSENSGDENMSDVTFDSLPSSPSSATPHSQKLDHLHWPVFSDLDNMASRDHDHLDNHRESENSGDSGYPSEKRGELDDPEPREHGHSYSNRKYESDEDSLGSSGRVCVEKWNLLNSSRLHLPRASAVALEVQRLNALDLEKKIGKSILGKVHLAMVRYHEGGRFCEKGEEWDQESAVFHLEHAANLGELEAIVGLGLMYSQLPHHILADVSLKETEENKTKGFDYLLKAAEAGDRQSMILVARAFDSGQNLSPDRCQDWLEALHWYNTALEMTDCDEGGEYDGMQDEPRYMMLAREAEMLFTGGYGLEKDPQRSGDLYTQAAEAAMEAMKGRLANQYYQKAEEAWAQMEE

[2] = system: HCT-116; assay: Cytotoxicity against human HCT116 cells after 72 hrs; assay type: functional, cell-based; conditions: HCT-116, 72 h
[3] = system: A549; assay: Cytotoxicity against human A549 cells after 72 hrs; assay type: functional, cell-based; conditions: A549, 72 h

Row | IC50 [1] [nM] | SMILES | EC50 [2] [nM] | EC50 [3] [nM]
1 | 2500 | NC(=O)c1sc2nc3c(cc2c1N)CCCCCC3 | 38000 | 38000
2 | 860 | CC(C)Cc1c2c(nc3sc(C(N)=O)c(N)c13)CCCCCC2 |  | 
3 | 2000 | NC(=O)c1sc2nc3c(c(C4CC4)c2c1N)CCCCCC3 |  | 
4 | 300 | NC(=O)c1sc2nc3c(c(-c4ccc(C(F)(F)F)o4)c2c1N)CCCCCC3 |  | 
5 | > 10000 | NC(=O)c1sc2nc(CC3CCCCC3)cc(-c3ccco3)c2c1N |  | 
6 | 1100 | NC(=O)c1sc2nc3c(c(-c4ccoc4)c2c1N)CCCCCC3 |  | 
7 | > 20000 | COC(=O)c1oc(-c2c3c(nc4sc(C(N)=O)c(N)c24)CCCCCC3)cc1C |  | 
8 | 4700 | Nc1ncnc2c1sc1nc3c(c(-c4ccco4)c12)CCCCC3 | > 100000 | 17000
9 | > 10000 | COc1ccc(-c2cc(-c3ccco3)c3c(N)c(C(N)=O)sc3n2)c(OC)c1 |  | 
10 | > 20000 | NC(=O)c1sc2nc3c(c(-c4ccccc4)c2c1N)CCCCCC3 |  | 
11 | 1400 | NC(=O)c1sc2nc3c(c(-c4nccs4)c2c1N)CCCCCC3 |  | 
12 | > 20000 | Cc1cccnc1-c1c2c(nc3sc(C(N)=O)c(N)c13)CCCCCC2 |  | 
13 | > 20000 | NC(=O)c1sc2nc3c(c(CCc4ccccc4)c2c1N)CCCCCC3 |  | 
14 | 1300 | COc1ccc(F)c(-c2c3c(nc4sc(C(N)=O)c(N)c24)CCCCCC3)c1 |  | 
15 | 330 | NC(=O)c1sc2nc3c(c(-c4cc5ccccc5o4)c2c1N)CCCCCC3 |  | 
16 | 660 | CCc1ccc(-c2c3c(nc4sc(C(N)=O)c(N)c24)CCCCCC3)o1 |  | 
17 | 220 | Nc1ncnc2c1sc1nc(N3CCOCC3)c3c(c12)CCCC3 | 29000 | 6700
18 | 3700 | Nc1ncnc2c1sc1nc3c(cc12)CCCCCCC3 |  | 

Row | IC50 [1] [nM] | SMILES | EC50 [2] [nM] | EC50 [3] [nM]
19 | 350 | Nc1ncnc2c1sc1nc3c(c(-c4ccco4)c12)CCCCCCC3 |  | 
20 | 800 | NC(=O)c1sc2nc3c(c(-c4ccc(CO)o4)c2c1N)CCCCCC3 |  | 
21 | 1100 | Cc1cc(-c2c3c(nc4sc(C(N)=O)c(N)c24)CCCCCC3)oc1C |  | 
22 | 1100 | Cc1c2c(nc3sc(C(N)=O)c(N)c13)CCCCCC2 |  | 
23 | 320 | NC(=O)c1sc2nc3c(c(/C=C/c4ccco4)c2c1N)CCCCCC3 | 19000 | 15000
24 | 460 | Cc1ccsc1-c1c2c(nc3sc(C(N)=O)c(N)c13)CCCCCC2 |  | 
25 | 1200 | Cc1cccc(-c2c3c(nc4sc(C(N)=O)c(N)c24)CCCCCC3)c1 |  | 
26 | 990 | Cn1cccc1-c1c2c(nc3sc(C(N)=O)c(N)c13)CCCCCC2 |  | 
27 | > 10000 | COc1ccc(Cc2cc(-c3ccco3)c3c(N)c(C(N)=O)sc3n2)c(OC)c1 |  | 
28 |  | NC(=O)c1sc2nc3c(c(-c4ccco4)c2c1N)CCCCCCC3 | 17000 | 
29 | 990 | NC(=O)c1sc2nc3c(c(-c4ccc(Cl)c(Cl)c4)c2c1N)CCCCCC3 |  | 
30 | > 20000 | NC(=O)c1sc2nc3c(c(-c4ccco4)c2c1N)CCCCCCCC3 |  | 
31 | 1100 | NC(=O)c1sc2nc3c(c(-c4ccc(Cl)cc4)c2c1N)CCCCCC3 |  | 
32 | 1100 | NC(=O)c1sc2nc3c(c(-c4ccco4)c2c1N)CCCCC3 |  | 
33 | 280 | NC(=O)c1sc2nc3c(c(-c4ccc(Cl)o4)c2c1N)CCCCCC3 | 100000 | 64000
34 | 640 | NC(=O)c1sc2nc3c(c(-c4ccco4)c2c1N)CCCCCC3 |  | 
35 | > 20000 | CC1CCCc2c1nc1sc(C(N)=O)c(N)c1c2-c1ccco1 (racemic) |  | 
36 | 10000 | CC(C)=CCCC(C)c1c2c(nc3sc(C(N)=O)c(N)c13)CCCCCC2 (racemic) |  | 
